The record followed here is patent US6087355A, “Cephalosporin antibiotics” (Microcide Pharmaceuticals, Inc., priority 1996, dated 2000).

Values after ≈ are worked out from the molar mass of the structure shown.

What all share (assay): In vitro MIC, agar dilution
Holding throughout (assay type): cell-based
(In agar dilution the substance is mixed into plates at graded concentrations.)

For one assay, the system named is E. coli ATCC 25992. The settings on record: Escherichia coli, ATCC25992, read-out: minimum inhibitory concentration (MIC). In outline:
(§1)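 Agar dilution, Mueller-Hinton; drug 128 → ≤0.25 μg/mL two-fold, duplicates. Inoculum ~10^4 cfu/spot (log phase). 35-36 °C, 16-20 h. MIC = lowest conc. with no growth.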

In the next assay the test system is E. faecium ATCC 35667. The settings on record: Enterococcus faecium, ATCC35667, read-out: minimum inhibitory concentration (MIC). Summed up: as §1
The test system of another assay is E. faecium VanA(Van^R). The settings on record: Enterococcus faecium, read-out: minimum inhibitory concentration (MIC). In outline:
as §1

The subject of assay [1] is S. aureus 76(Meth^R)(lac^+). The settings on record: Staphylococcus aureus, read-out: minimum inhibitory concentration (MIC). In outline: as §1
The test system of assay [2] is S. aureus ATCC 13709(Meth^S). As to conditions: Staphylococcus aureus, ATCC13709, S. aureus ATCC 13709(Meth^S); read-out: minimum inhibitory concentration (MIC). Summed up: as §1
The test system of assay [3] is S. aureus PC1(Meth^S)(lac^+). As to conditions: Staphylococcus aureus, read-out: minimum inhibitory concentration (MIC). Summed up: as §1
Assay [4] deals with S. aureus Spain #356(Meth^R). As to conditions: Staphylococcus aureus, read-out: minimum inhibitory concentration (MIC). Summed up:
as §1

For assay [5], the system named is S. haemolyticus 05(Meth^R). The settings on record: Staphylococcus haemolyticus, read-out: minimum inhibitory concentration (MIC). Summed up:
as §1

Consider `C[C@@H](O)[C@H]1C(=O)N2C(C(=O)O)=C(SCCN=CN)C[C@H]12` [Imipenem, imipenem, reference compound], for which the MIC in the assay on E. coli ATCC 25992 is not above 0.25 µg/mL; with E. faecium ATCC 35667, 4 µg/mL (≈ 13.4 µM); in the assay on E. faecium VanA(Van^R) it was 4 µg/mL (≈ 13.4 µM); in assay [1], 32 µg/mL (≈ 107 µM); in assay [2] it was not above 0.25 µg/mL; in assay [3] it was not above 0.25 µg/mL. In addition, the MIC in assay [4] stood at 32 µg/mL (≈ 107 µM); in assay [5], 64 µg/mL (≈ 214 µM).
